Key:
Experiment in all cases: relative viability (nuclei count vs DMSO), 5 days (fraction); higher = more cells survive
Sulindac + Bortezomib = compound: CC1=C(CC(=O)O)c2cc(F)ccc2/C1=C\c1ccc([S+](C)[O-])cc1 [Sulindac] + CC(C)C[C@H](NC(=O)[C@H](Cc1ccccc1)NC(=O)c1cnccn1)B(O)O [Bortezomib] (partner 0.002 µM)
Procedure, shortened: (§1)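 Relative viability equals treated-well nuclei counts divided by vehicle-well nuclei counts. Counts came from 4× images of lung cancer cell lines grown in 1536-well plates for 5 days after pin-tool dosing on the day after seeding. Dosing used one drug alone or a fixed anchor-drug dose plus five library-drug doses (not always all listed) in √10 steps, and values are medians of duplicate plates.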

Sulindac + Foretinib = compound: CC1=C(CC(=O)O)c2cc(F)ccc2/C1=C\c1ccc([S+](C)[O-])cc1 [Sulindac] + COc1cc2c(Oc3ccc(NC(=O)C4(C(=O)Nc5ccc(F)cc5)CC4)cc3F)ccnc2cc1OCCCN1CCOCC1 [Foretinib] (partner 0.25 µM)
Procedure, shortened: as §1

[1] = compound: CN[C@@H]1C[C@H]2O[C@@](C)([C@@H]1OC)n1c3ccccc3c3c4c(c5c6ccccc6n2c5c31)C(=O)NC4 [Staurosporine] + Cc1cc(Nc2cc(N3CCN(C)CC3)nc(Sc3ccc(NC(=O)C4CC4)cc3)n2)n[nH]1 [Tozasertib] (partner 0.1 µM)
Procedure, shortened: as §1

[2] = compound: O=c1[nH]cc(F)c(=O)[nH]1 [5-Fluorouracil] + O=C(CCCCCCC(=O)Nc1ccccc1)NO [Vorinostat] (partner 1 µM)
Procedure, shortened: as §1

Row | Cell Line | relative viability (Sulindac + Bortezomib; first compound 0.08 µM) | relative viability (Sulindac + Bortezomib; first compound 0.253 µM) | relative viability (Sulindac + Bortezomib; first compound 0.8 µM) | relative viability (Sulindac + Bortezomib; first compound 2.53 µM) | relative viability (Sulindac + Bortezomib; first compound 8 µM) | relative viability (Sulindac + Foretinib; first compound 0.08 µM) | relative viability (Sulindac + Foretinib; first compound 0.253 µM) | relative viability (Sulindac + Foretinib; first compound 8 µM) | relative viability ([1]; first compound 0.005 µM) | relative viability ([1]; first compound 0.05 µM) | relative viability ([1]; first compound 0.1581 µM) | relative viability ([1]; first compound 0.5 µM) | relative viability ([2]; first compound 0.02 µM) | relative viability ([2]; first compound 0.2 µM) | relative viability ([2]; first compound 0.6325 µM) | relative viability ([2]; first compound 2 µM) | relative viability (Sulindac + Foretinib; first compound 0.8 µM) | relative viability (Sulindac + Foretinib; first compound 2.53 µM) | relative viability ([1]; first compound 0.01581 µM)
1 | 201T | 1.12 | 1.1 | 1.06 | 1.12 | 1.08 | 1.1 | 1.08 | 1.22 | 1.06 | 0.758 | 0.373 | 0.31 | 1.04 | 0.54 | 0.287 | 0.228 | – | – | –
2 | A549 | – | – | – | – | – | 1.04 | 1.12 | 1.12 | – | – | – | – | – | – | – | – | 0.653 | 0.975 | –
3 | A-427 | 0.899 | 0.976 | 1.08 | 0.965 | 1.17 | 1.08 | 1.05 | 1.02 | 0.171 | 0.1 | 0.104 | 0.0934 | 0.812 | 0.921 | 0.783 | 0.419 | 0.979 | 1.17 | 0.113
4 | ABC-1 | 0.328 | 0.281 | 0.279 | 0.311 | 0.31 | 1.02 | 0.96 | 1.33 | 0.134 | 0.125 | 0.111 | 0.111 | 0.982 | 1.24 | 0.963 | 0.834 | 1.02 | 0.867 | 0.104
5 | BEN | 0.829 | 0.889 | 0.714 | 0.748 | 0.947 | 0.834 | 0.693 | 0.771 | 0.587 | 0.484 | 0.434 | 0.325 | 0.566 | 0.641 | 0.579 | 0.633 | 0.57 | 0.569 | 0.743
6 | CAL-12T | 0.999 | 1.06 | 0.852 | 0.918 | 1.26 | 1.22 | 1.22 | 1.27 | 0.146 | 0.101 | 0.132 | 0.0975 | 0.759 | 0.591 | 0.563 | 0.447 | 0.911 | 1.12 | 0.117
7 | COR-L23 | 1.17 | 1.14 | – | 1.2 | 1.23 | 1.18 | 1.03 | 1.26 | 0.102 | 0.0926 | 0.0869 | 0.0647 | 0.455 | 0.372 | 0.239 | 0.159 | 0.88 | 0.982 | 0.112
8 | COR-L 105 | 0.819 | 0.939 | 0.626 | 0.724 | 1.09 | 0.871 | 0.904 | 1.44 | 0.253 | 0.245 | 0.237 | 0.229 | 0.718 | 0.881 | 0.771 | 0.626 | 1.18 | 0.783 | 0.26
9 | Calu-6 | 1.11 | 1.14 | 0.915 | 1.02 | 1.13 | 1.02 | 0.916 | 1.08 | – | – | – | – | – | – | – | – | 0.846 | 0.893 | –
10 | ChaGo-K-1 | 1.07 | 1.1 | 0.885 | 0.882 | 1.35 | 1.05 | 0.999 | 0.926 | 0.202 | 0.162 | 0.145 | 0.157 | 0.814 | 0.687 | 0.622 | 0.384 | 0.925 | 0.991 | 0.181

— the supplement of paper PMC10307832
